Results reported in US6589751B2, “Immonological detection of the homocystamide adduct and a thiolactone immunoassay for endogeneous homocysteine” (MCW Research Foundation, priority 1997, dated 2003).
“Also recorded” adds a separate entry of the source.

Key:
Type in all cases: binding, rabbit
[1] = system: antiserum to homocystamide-LDL adduct; test: competition ELISA with antiserum (1:700), solid phase homocystamide-LDL adduct; details: competitor against solid phase homocystamide-LDL adduct
Experimental: Antiserum obtained as described in FIG. 1 was added to Millipore 96-well plates containing pre-adsorbed homocystamide-LDL adduct (100 μl, 10 μg/ml) at a limiting dilution (1:700) in the indicated concentrations of competitors (●, homocystamide-LDL adduct, ∘, native LDL, □, acetylated LDL, ▴, methylated LDL, ▪, methylated LDL treated with homocysteine thiolactone). Following a 12 hour incubation, antibody bound was quantified as described in FIG. 2. […] This experiment is representative of 3 independent experiments. (n=3 for each data point. Data points are the mean±SEM).
Antiserum obtained as described in FIG. 1 was added to Millipore 96-well plates containing pre-adsorbed homocystamide-LDL adduct (100 μl, 10 μg/ml) at a limiting dilution (1:700) in the indicated concentrations of competitors (●, Cu^2+-oxidized homocystamide-LDL adduct, ▪, Cu^2+-oxidized LDL, ▴, homocysteine). Following a 12 hour incubation, antibody bound was quantified as described in FIG. 1. […] This experiment is representative of 3 independent experiments. (n=3 for each data point. Data points are the mean±SEM).
Antiserum obtained as described in FIG. 1 was added to Millipore 96-well plates containing pre-adsorbed homocystamide-LDL adduct (100 μl, 10 μg/ml) at a limiting dilution (1:700) in the indicated concentrations of competitors (▴, ●, ▪, homocystamide-LDL, -HDL, and -lipoprotein-deficient serum proteins isolated from homocysteine thiolactone-treated plasma, and freshly drawn plasma without homocysteine thiolactone treatment, Δ). Following a 12 hour incubation, antibody bound following a 2-hour incubation, antibody bound was quantified as described in FIG. 1 using horseradish peroxidase-linked goat-anti-rabbit IgG (heavy and light chains). […] (n=4 for each data point. Data points are the mean±SEM). […] (This experiment is representative of 3 independent experiments. Data points are the mean of duplicate measurements.)
Briefly, 96-well plates were initially coated with homocystamide-LDL adduct (100 μl, 10 μg/ml). […] Immunoglobulin classes were determined using goat-anti-rabbit-μ-chain-specific, -heavy chain specific, and -heavy and light chain specific secondary antibodies that were linked to horseradish peroxidase. In order to determine antibody specificity, competition experiments were employed, using a limiting dilution (1:300) of purified antibody. Horseradish peroxidase-labeled goat-anti rabbit (heavy and light chain-specific) was used as a substrate, and the reaction was quenched by the addition of H2SO4 (100 μl, 1.8 M). The absorbance was measured at 450 nm in a 96-well plate reader.
Homocysteine thiolactone-treated LDL (10 μg/ml) was coated onto 96-well plates.

[2] = system: purified polyclonal antibody directed against the homocystamide adduct; test: competition ELISA with purified polyclonal antibody (1:300), solid phase homocystamide-LDL adduct; details: for IC50 values, D,L- versus L-homocystamide-BSA compared: competitor 0-500 μg/ml, P>0.05, data not shown
Experimental: Solid phase ELISA techniques for antibody characterization. Solid phase indirect antibody capture techniques were used in all assays and have been described elsewhere (10, 34). Briefly, 96-well plates were initially coated with homocystamide-LDL adduct (100 μl, 10 μg/ml). For antibody titer determinations, the antisera were diluted at concentrations as indicated in the “Results” section. We defined antibody titers as the inverse of the greatest serum dilution in which a significant difference (p<0.05) between the percentage antibody bound from the antiserum and the pre-immune serum was observed. Immunoglobulin classes were determined using goat-anti-rabbit-μ-chain-specific, -heavy chain specific, and -heavy and light chain specific secondary antibodies that were linked to horseradish peroxidase. In order to determine antibody specificity, competition experiments were employed, using a limiting dilution (1:300) of purified antibody. Horseradish peroxidase-labeled goat-anti rabbit (heavy and light chain-specific) was used as a […], and the reaction was quenched by the addition of H2SO4 (100 μl, 1.8 M). The absorbance was measured at 450 nm in a 96-well plate reader.
Purification of antiserum. Polyclonal rabbit-anti-homocystamide antiserum was obtained following the 4th immunization of New Zealand White rabbits with homologous homocystamide-LDL adduct (0.5 mg in Freund's adjuvant) as described previously (34). A saturated solution of ammonium sulfate was added dropwise to the antiserum while stirring until the solution was 25% saturated with ammonium sulfate. This mixture was incubated overnight at 4° C. The mixture was centrifuged, and pellet was discarded. Ammonium sulfate was added to the supernatant while stirring until the final concentration of the solution was 50% ammonium sulfate. This mixture was incubated overnight at 4° C. The mixture was centrifuged, and the supernatant was discarded. The pellet was brought up in and dialyzed against Tris (10 mM, pH 7.5). […]

[3] = system: antiserum to homocystamide-LDL adduct; test: solid phase ELISA serum dilution curve on homocystamide adducts of other proteins; details: protein coated on solid phase
Experimental: Solid phase ELISA techniques for antibody characterization. Solid phase indirect antibody capture techniques were used in all assays and have been described elsewhere (10, 34). Briefly, 96-well plates were initially coated with homocystamide-LDL adduct (100 μl, 10 μg/ml). For antibody titer determinations, the antisera were diluted at concentrations as indicated in the “Results” section. We defined antibody titers as the inverse of the greatest serum dilution in which a significant difference (p<0.05) between the percentage antibody bound from the antiserum and the pre-immune serum was observed. Immunoglobulin classes were determined using goat-anti-rabbit-μ-chain-specific, -heavy chain specific, and -heavy and light chain specific secondary antibodies that were linked to horseradish peroxidase. In order to determine antibody specificity, competition experiments were employed, using a limiting dilution (1:300) of purified antibody. […] The absorbance was measured at 450 nm in a 96-well plate reader.
We sought to determine whether or not homocystamide adducts of other proteins could also be used in order to measure antibody titers. […] This curve resembled the serum dilution curve obtained in FIG. 4, as the antiserum recognized both homocystamide-BSA and homocystamide-hemoglogin adduct, indicated by antiserum dilution-dependent increase in the absorbance at 450 nm.

[4] = target: purified polyclonal anti-homocystamide adduct antibody; test: competition ELISA with purified polyclonal antibody (1:400), plates coated with homocystamide-BSA adduct
Experimental: Microtiter plate preparation. BSA (10 mg/ml in 1M borate, pH 8.4) was incubated for 6 hours at 25° C. in the presence of homocysteine thiolactone (50 mM). Following incubation, excess homocysteine thiolactone was removed by passing the sample down a column pre-equilibrated with NaCO3 (100 mM, pH 9.6). Homocystamide-BSA adduct was diluted to 5 μg/ml in NaCO3 (100 mM, pH 9.6), and 200 μl/well was added to polystyrene microtiter plates (11). These plates were incubated overnight at 4° C., rinsed in PBS, and either used immediately or covered and stored in PBS for future use.
Preparation of a standard curve. In order to prepare a standard curve of known homocysteine concentrations, the indicated concentrations of homocysteine were incubated in the presence of HCl (6N) and heated at 60° C. for 2 hours. […] These solutions were used in a competitive antibody binding assays in parallel with “test solutions” that were analyzed for homocysteine concentrations.
Immunoassay. […] The reactions were quenched after 30 minutes by the addition of H2SO4 (1.8N) and read at 450 nm. […]
Determination of antibody specificity. Antibody specificity for homocystamide-BSA adduct was determined. […] Results of antibody binding are expressed as B/B0, in which B is the % antibody binding in the presence of competitor, and B0 is the % antibody binding in the absence of competitor. […]

| IC50 values, D,L- versus L-homocystamide-BSA compared [2] | Molecule | competition for binding to the antiserum (dose-dependent decrease in %B/B0) [1] | other results |
| --- | --- | --- | --- |
| – | N[C@@H](CCS)C(=O)O [homocysteine] | Neither homocysteine, homocystine (homocysteine disulfide), nor Cu^2+-oxidized LDL competed for binding | competition for binding to the antiserum (dose-dependent decrease in %B/B0) ([1]; listed as free homocysteine): did not compete for binding |
| – | N[C@@H](CCSSCC[C@H](N)C(=O)O)C(=O)O [homocystine] | neither BSA nor homocysteine disulfide (homocystine) were recognized; also recorded: Neither homocysteine, homocystine (homocysteine disulfide), nor Cu^2+-oxidized LDL competed for binding | competition / recognition by purified polyclonal antibody ([2]; purified polyclonal antibody 1:300, solid phase homocystamide-LDL): much less affinity than protein-homocystamide adducts; also recorded: recognized, however with much lower affinity |
| not significantly different | D,L-homocystamide-BSA: BSA incubated with D,L Homocysteine thiolactone | – | – |
| not significantly different | L-homocystamide-BSA: BSA incubated with L-homocysteine thiolactone | – | – |
| – | homocystamide-BSA adduct: BSA treated with homocysteine thiolactone; printed as BSA in the IC50 sentence of b114 | – | recognition by the antiserum (dilution-dependent increase in absorbance at 450 nm) [3]: recognized; IC50, inhibition of antibody binding (B/B0) [4]: approximately 200 μg/ml |
